Values of other authors in US11400063B2, “Early administration of low-dose colchicine after myocardial infarction” (INSTITUT DE CARDIOLOGIE DE MONTREAL, priority 2019, dated 2022).

Assays:
[1] = CIRT; cited from earlier work
[2] = test system: stable coronary disease; details: CANTOS; cited from earlier work

Molecule | cardiovascular outcomes or plasma markers of inflammation [1] | incidence of fatal infections [2] | lower risk of cardiovascular events than with placebo [2] [%]
CN(Cc1cnc2nc(N)nc(N)c2n1)c1ccc(C(=O)N[C@@H](CCC(=O)O)C(=O)O)cc1 [methotrexate] | did not affect | – | –
canakinumab: injectable monoclonal antibody inhibiting interleukin-1β | – | slightly higher incidence | 15
